Results published in patent US8222278B2, “Treatment of attention-deficit/hyperactivity disorder” (Abbott Laboratories, priority 2008, dated 2012).

Test system: adults with ADHD
Experiment: Study A: treatment-emergent adverse events (safety dataset)
Experimental: During each visit, blood pressure, heart rate, weight, medication accountability and tolerability, and adverse effects were assessed.
The safety dataset consisted of all subjects who took at least one dose of study drug. The reasons for discontinuation and the treatment-emergent adverse events were summarized by the treatment under which the discontinuation or event was reported.
Treatment-emergent adverse events were those that began or worsened following the first dose of study drug in Period 1. Adverse event monitoring was conducted at each study visit and until 30 days following discontinuation of study drug. Other routine safety assessments included vital signs, electrocardiograms, physical examinations, brief neurological examinations and laboratory tests.

Clc1cc(N2C[C@@H]3CN[C@@H]3C2)cnc1Cl [ABT-894, 3-(5,6-Dichloro-pyridin-3-yl)-1S,5S-3,6-diazabicyclo[3.2.0]heptane]
Any Adverse Event, % of subjects (ABT-894 1 mg QD, N = 46): (69.6) % | Any Adverse Event, number of subjects (ABT-894 1 mg QD, N = 46): 32 subjects | Decreased appetite, % of subjects (ABT-894 1 mg QD, N = 46): (0) % | Decreased appetite, number of subjects (ABT-894 1 mg QD, N = 46): 0 subjects | Diarrhea, % of subjects (ABT-894 1 mg QD, N = 46): (0) % | Diarrhea, number of subjects (ABT-894 1 mg QD, N = 46): 0 subjects | Dizziness, % of subjects (ABT-894 1 mg QD, N = 46): (4.3) % | Dizziness, number of subjects (ABT-894 1 mg QD, N = 46): 2 subjects | Dry mouth, % of subjects (ABT-894 1 mg QD, N = 46): (4.3) % | Dry mouth, number of subjects (ABT-894 1 mg QD, N = 46): 2 subjects | Fatigue, % of subjects (ABT-894 1 mg QD, N = 46): (4.3) % | Fatigue, number of subjects (ABT-894 1 mg QD, N = 46): 2 subjects | Feeling hot and cold, % of subjects (ABT-894 1 mg QD, N = 46): (0) % | Feeling hot and cold, number of subjects (ABT-894 1 mg QD, N = 46): 0 subjects | Feeling jittery, % of subjects (ABT-894 1 mg QD, N = 46): (0) % | Feeling jittery, number of subjects (ABT-894 1 mg QD, N = 46): 0 subjects | Headache, % of subjects (ABT-894 1 mg QD, N = 46): (8.7) % | Headache, number of subjects (ABT-894 1 mg QD, N = 46): 4 subjects | Lethargy, % of subjects (ABT-894 1 mg QD, N = 46): (0) % | Lethargy, number of subjects (ABT-894 1 mg QD, N = 46): 0 subjects | Muscle Strain, % of subjects (ABT-894 1 mg QD, N = 46): (6.5) % | Muscle Strain, number of subjects (ABT-894 1 mg QD, N = 46): 3 subjects | Nasal congestion, % of subjects (ABT-894 1 mg QD, N = 46): (0) % | Nasal congestion, number of subjects (ABT-894 1 mg QD, N = 46): 0 subjects | Nausea, % of subjects (ABT-894 1 mg QD, N = 46): (4.3) % | Nausea, number of subjects (ABT-894 1 mg QD, N = 46): 2 subjects | Parathesia, % of subjects (ABT-894 1 mg QD, N = 46): (0) % | Parathesia, number of subjects (ABT-894 1 mg QD, N = 46): 0 subjects | Sleep disturbances, % of subjects (ABT-894 1 mg QD, N = 46): (4.3) % | Sleep disturbances, number of subjects (ABT-894 1 mg QD, N = 46): 2 subjects | Somnolence, % of subjects (ABT-894 1 mg QD, N = 46): (13.0) % | Somnolence, number of subjects (ABT-894 1 mg QD, N = 46): 6 subjects | Upper RTI, % of subjects (ABT-894 1 mg QD, N = 46): (2.2) % | Upper RTI, number of subjects (ABT-894 1 mg QD, N = 46): 1 subjects | Vomiting, % of subjects (ABT-894 1 mg QD, N = 46): (0) % | Vomiting, number of subjects (ABT-894 1 mg QD, N = 46): 0 subjects | Any Adverse Event, % of subjects (ABT-894 2 mg QD, N = 42): (61.9) % | Any Adverse Event, number of subjects (ABT-894 2 mg QD, N = 42): 26 subjects | Decreased appetite, % of subjects (ABT-894 2 mg QD, N = 42): (0) % | Decreased appetite, number of subjects (ABT-894 2 mg QD, N = 42): 0 subjects | Diarrhea, % of subjects (ABT-894 2 mg QD, N = 42): (4.8) % | Diarrhea, number of subjects (ABT-894 2 mg QD, N = 42): 2 subjects | Dizziness, % of subjects (ABT-894 2 mg QD, N = 42): (9.5) % | Dizziness, number of subjects (ABT-894 2 mg QD, N = 42): 4 subjects | Dry mouth, % of subjects (ABT-894 2 mg QD, N = 42): (0) % | Dry mouth, number of subjects (ABT-894 2 mg QD, N = 42): 0 subjects | Fatigue, % of subjects (ABT-894 2 mg QD, N = 42): (2.4) % | Fatigue, number of subjects (ABT-894 2 mg QD, N = 42): 1 subjects | Feeling hot and cold, % of subjects (ABT-894 2 mg QD, N = 42): (0) % | Feeling hot and cold, number of subjects (ABT-894 2 mg QD, N = 42): 0 subjects | Feeling jittery, % of subjects (ABT-894 2 mg QD, N = 42): (0) % | Feeling jittery, number of subjects (ABT-894 2 mg QD, N = 42): 0 subjects | Headache, % of subjects (ABT-894 2 mg QD, N = 42): (11.9) % | Headache, number of subjects (ABT-894 2 mg QD, N = 42): 5 subjects | Lethargy, % of subjects (ABT-894 2 mg QD, N = 42): (0) % | Lethargy, number of subjects (ABT-894 2 mg QD, N = 42): 0 subjects | Muscle Strain, % of subjects (ABT-894 2 mg QD, N = 42): (0) % | Muscle Strain, number of subjects (ABT-894 2 mg QD, N = 42): 0 subjects | Nasal congestion, % of subjects (ABT-894 2 mg QD, N = 42): (0) % | Nasal congestion, number of subjects (ABT-894 2 mg QD, N = 42): 0 subjects | Nausea, % of subjects (ABT-894 2 mg QD, N = 42): (14.3) % | Nausea, number of subjects (ABT-894 2 mg QD, N = 42): 6 subjects | Parathesia, % of subjects (ABT-894 2 mg QD, N = 42): (0) % | Parathesia, number of subjects (ABT-894 2 mg QD, N = 42): 0 subjects | Sleep disturbances, % of subjects (ABT-894 2 mg QD, N = 42): (14.3) % | Sleep disturbances, number of subjects (ABT-894 2 mg QD, N = 42): 6 subjects | Somnolence, % of subjects (ABT-894 2 mg QD, N = 42): (0) % | Somnolence, number of subjects (ABT-894 2 mg QD, N = 42): 0 subjects | Upper RTI, % of subjects (ABT-894 2 mg QD, N = 42): (7.1) % | Upper RTI, number of subjects (ABT-894 2 mg QD, N = 42): 3 subjects | Vomiting, % of subjects (ABT-894 2 mg QD, N = 42): (2.4) % | Vomiting, number of subjects (ABT-894 2 mg QD, N = 42): 1 subjects | Any Adverse Event, % of subjects (ABT-894 4 mg BID, N = 46): (54.3) % | Any Adverse Event, number of subjects (ABT-894 4 mg BID, N = 46): 25 subjects | Decreased appetite, % of subjects (ABT-894 4 mg BID, N = 46): (0) % | Decreased appetite, number of subjects (ABT-894 4 mg BID, N = 46): 0 subjects | Diarrhea, % of subjects (ABT-894 4 mg BID, N = 46): (2.2) % | Diarrhea, number of subjects (ABT-894 4 mg BID, N = 46): 1 subjects | Dizziness, % of subjects (ABT-894 4 mg BID, N = 46): (2.2) % | Dizziness, number of subjects (ABT-894 4 mg BID, N = 46): 1 subjects | Dry mouth, % of subjects (ABT-894 4 mg BID, N = 46): (2.2) % | Dry mouth, number of subjects (ABT-894 4 mg BID, N = 46): 1 subjects | Fatigue, % of subjects (ABT-894 4 mg BID, N = 46): (8.7) % | Fatigue, number of subjects (ABT-894 4 mg BID, N = 46): 4 subjects | Feeling hot and cold, % of subjects (ABT-894 4 mg BID, N = 46): (0) % | Feeling hot and cold, number of subjects (ABT-894 4 mg BID, N = 46): 0 subjects | Feeling jittery, % of subjects (ABT-894 4 mg BID, N = 46): (0) % | Feeling jittery, number of subjects (ABT-894 4 mg BID, N = 46): 0 subjects | Headache, % of subjects (ABT-894 4 mg BID, N = 46): (8.7) %
